The test system of data set [1] is MDA-MB-435 breast cancer cells. Put plainly: Photostability: cytotoxicity of solutions kept under room light, Neutral Red assay. As to conditions: EF24-GSH: 10 mM in sterile water, up to 48 hours under room light, FIG. 3; EF24: diluted aqueous solution, overnight. Type of data set: cell-based, human. The method, then: MDA-MB-435 breast cancer cells were seeded at 2×10^4 per well in a 96-well plate with DMEM medium supplemented with 10% FBS, plus antibiotics penicillin and streptomycin. After 24 hours, cells were treated with EF24-GSH in the presence of the above growth medium. EF24-GSH solutions were made fresh at 10 mM with sterile water and placed under room light in clear Eppendorf tubes for 30 min, 24 hours and 48 hours, respectively, before adding to the cells. Cell viability was determined after 48 hours of treatment with EF24-GSH conjugate using the Neutral Red assay.

The nature of data set [2]: Photostability: appearance of aqueous solution under room light. Type of data set: physicochemical. Conditions: EF24-GSH: after 48 hours under room light; EF24: diluted aqueous solution, overnight.
The conditions of data set [3]: background statement; cited from earlier work.
Another data set relates to tumor cell growth. As to conditions: background statement; cited from earlier work.
Data set [4] concerns MDA-MB-231 human breast cancer cells. Conditions: MDA-MB-231 cells, background statement; cited from earlier work.
Data set [5] deals with DU-145 human prostate cancer cells. Conditions: DU-145 cells, background statement; cited from earlier work.
The conditions of data set [6]: background statement; cited from earlier work. This is another data set of the same source.

Data on one compound can be found in patent US20070270464A1, “PRODRUGS OF CURCUMIN ANALOGS” (priority 2006, published 2007).

SMILES strings stand for the structures.

As for `CC(=O)O.O=C1C(=Cc2ccccc2F)CNCC1=Cc1ccccc1F` [EF24, 3,5-Bis-(2-fluorobenzylidene)-piperidin-4-one, acetic acid salt], the “cytotoxicity after exposure of the solution to room light” value in data set [1] was “severely compromised”. The “colour of the solution under room light” value in data set [2] was “turns dark overnight”. Moreover, in data set [3], the photostability entry is “poor photostability” and the water solubility result is “relatively insoluble in water”. The “inhibition of tumor cell growth, potency compared with cisplatin” value in the data set with tumor cell growth was “higher potency than cisplatin”. Also, in data set [4], the cell cycle arrest entry is “G2/M arrest”. Besides, the cell cycle arrest result in data set [5] is “G2/M arrest”. The toxicity result in data set [6] is listed as “relatively little toxicity”.
